Tests used:
[1] = target: T1, Melanocortin receptor 5 (Homo sapiens, UniProt P33032); assay: Agonist activity at human recombinant MC5 receptor expressed in HEK293 cells assessed as cAMP accumulation by beta lactamase reporter gene assay relative to alpha melanocyte-stimulating hormone; type: functional, cell-based
[2] = target: T1, Melanocortin receptor 5; assay: Agonist activity at human recombinant MC5 receptor expressed in HEK293 cells assessed as cAMP accumulation by beta lactamase reporter gene assay; type: functional, cell-based
[3] = Lipophilicity, log D at pH 7.4; type: physicochemical; settings: buffer
[4] = target: T2, Melanocortin receptor 4 (Homo sapiens, UniProt P32245); assay: Displacement of [125I]-MT-II from human recombinant MC4 receptor expressed in CHO cells by scintillation counting
T2 sequence (P32245 whole entry, the tested form may be a part): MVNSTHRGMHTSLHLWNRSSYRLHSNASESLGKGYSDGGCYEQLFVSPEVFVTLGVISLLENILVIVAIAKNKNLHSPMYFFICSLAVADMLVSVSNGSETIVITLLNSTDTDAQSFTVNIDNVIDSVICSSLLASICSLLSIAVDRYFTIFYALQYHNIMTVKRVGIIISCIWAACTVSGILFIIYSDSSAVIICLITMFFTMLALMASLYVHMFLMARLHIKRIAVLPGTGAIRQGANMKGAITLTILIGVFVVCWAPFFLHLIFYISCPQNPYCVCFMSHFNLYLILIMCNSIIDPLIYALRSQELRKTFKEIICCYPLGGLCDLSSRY

[5] = target: T3, Melanocortin receptor 3 (Homo sapiens, UniProt P41968); assay: Agonist activity at human recombinant MC3 receptor expressed in CHO cells assessed as cAMP accumulation by enzyme fragment complementation assay; type: functional, cell-based
T3 sequence (P41968 whole entry, the tested form may be a part): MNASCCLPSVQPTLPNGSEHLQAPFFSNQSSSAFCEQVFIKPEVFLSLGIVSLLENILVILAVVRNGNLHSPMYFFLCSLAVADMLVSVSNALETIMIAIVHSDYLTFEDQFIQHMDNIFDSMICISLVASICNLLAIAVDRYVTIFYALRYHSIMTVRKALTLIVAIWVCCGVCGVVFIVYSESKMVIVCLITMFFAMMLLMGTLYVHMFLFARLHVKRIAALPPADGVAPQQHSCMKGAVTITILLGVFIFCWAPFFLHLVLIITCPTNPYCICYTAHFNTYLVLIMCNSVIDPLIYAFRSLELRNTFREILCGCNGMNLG

[6] = target: T3, Melanocortin receptor 3; assay: Agonist activity at human recombinant MC3 receptor expressed in CHO cells assessed as cAMP accumulation by enzyme fragment complementation assay relative to […]; type: functional, cell-based
[7] = target: T2, Melanocortin receptor 4; assay: Agonist activity at human recombinant MC4 receptor expressed in CHO cells by cAMP responsive beta lactamase reporter gene assay; type: functional, cell-based
[8] = target: T4, Melanocyte-stimulating hormone receptor (Homo sapiens, UniProt Q01726); assay: Agonist activity at human recombinant MC1 receptor expressed in HEK293 cells assessed as cAMP accumulation by enzyme fragment complementation assay; type: functional, cell-based
Target sequence in this assay (Q01726 whole entry, the tested form may be a part): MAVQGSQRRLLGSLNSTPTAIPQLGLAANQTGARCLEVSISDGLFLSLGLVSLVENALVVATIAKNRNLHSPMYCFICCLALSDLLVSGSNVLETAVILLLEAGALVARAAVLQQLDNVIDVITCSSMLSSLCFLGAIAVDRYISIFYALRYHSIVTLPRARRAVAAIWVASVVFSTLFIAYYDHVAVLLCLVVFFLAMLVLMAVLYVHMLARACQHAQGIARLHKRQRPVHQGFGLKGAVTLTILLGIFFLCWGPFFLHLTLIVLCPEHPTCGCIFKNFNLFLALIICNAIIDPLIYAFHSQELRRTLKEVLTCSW

[9] = Intrinsic clearance in human liver microsome measured per mg of protein; type: ADME; settings: liver microsomes
[10] = target: T4, Melanocyte-stimulating hormone receptor; assay: Agonist activity at human recombinant MC1 receptor expressed in HEK293 cells assessed as cAMP accumulation by enzyme fragment complementation assay relative to alpha melanocyte-stimulating hormone; type: functional, cell-based
Target sequence in this assay (Q01726 whole entry, looked up, the tested form may be a part): as the sequence (Q01726 whole entry, the tested form may be a part) above

T1 sequence (P33032 whole entry): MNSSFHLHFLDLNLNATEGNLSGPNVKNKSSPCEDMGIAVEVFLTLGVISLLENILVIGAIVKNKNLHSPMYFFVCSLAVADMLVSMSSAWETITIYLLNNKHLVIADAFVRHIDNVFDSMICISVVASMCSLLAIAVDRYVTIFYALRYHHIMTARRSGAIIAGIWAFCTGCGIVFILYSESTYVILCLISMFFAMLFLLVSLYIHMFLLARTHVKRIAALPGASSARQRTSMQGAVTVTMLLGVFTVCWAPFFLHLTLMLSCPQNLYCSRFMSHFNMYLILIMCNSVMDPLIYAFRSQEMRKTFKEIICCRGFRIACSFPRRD

C[C@@H]1CN(C(=O)[C@@H]2CN(C(C)(C)C)C[C@H]2c2ccc(F)cc2F)C[C@H](C)[C@@]1(O)c1cccc(F)c1
Emax [1]: 74% | EC50 [2]: 1800 nM | logD [3]: 3.3 | Ki [4]: 97 nM | EC50 [5]: 570 nM | Emax [6]: 81% | EC50 [7]: 6 nM | EC50 [8]: > 6470 nM | microsomal CLint [9]: 52 µL/min/mg

C[C@@H]1CN(C(=O)[C@H]2CN(CC3CC3)C[C@@H]2c2ccc(F)cc2F)C[C@H](C)[C@@]1(O)c1ccccc1
EC50 [7]: 81 nM

C[C@@H]1CN(C(=O)[C@H]2CN(c3ncccn3)C[C@@H]2c2ccc(F)cc2F)C[C@H](C)[C@@]1(O)c1ccccc1
EC50 [2]: > 11100 nM | Ki [4]: 300 nM | EC50 [5]: > 26700 nM | EC50 [7]: 243 nM | EC50 [8]: > 10000 nM

C[C@@H]1CN(C(=O)[C@@H]2CN(C(C)(C)C)C[C@H]2c2ccc(F)cc2F)C[C@H](C)[C@@]1(O)c1ccc(F)cc1F
Emax [1]: 84% | Emax [10]: 93% | Ki [4]: 176 nM | EC50 [5]: 10700 nM | EC50 [7]: 62 nM | EC50 [8]: 6570 nM

COc1ccc([C@@]2(O)[C@H](C)CN(C(=O)[C@@H]3CN(C(C)(C)C)C[C@H]3c3ccc(F)cc3F)C[C@@H]2C)cc1
EC50 [7]: 53 nM

C[C@@H]1CN(C(=O)[C@@H]2CN(C(C)(C)C)C[C@H]2c2ccc(F)cc2F)C[C@H](C)[C@@]1(O)c1cccnc1
EC50 [7]: 3630 nM

CC(C)CN1C[C@H](C(=O)N2C[C@@H](C)[C@](O)(c3ccccc3)[C@@H](C)C2)[C@@H](c2ccc(F)cc2F)C1
EC50 [7]: 73 nM

CCN1C[C@@H](C(=O)N2C[C@@H](C)[C@](O)(c3ccc(F)cc3)[C@@H](C)C2)[C@H](c2ccc(F)cc2F)C1
EC50 [7]: 147 nM

CC(C)[C@@]1(O)[C@H](C)CN(C(=O)[C@@H]2CN(C(C)(C)C)C[C@H]2c2ccc(F)cc2F)C[C@@H]1C
EC50 [7]: 626 nM

C[C@@H]1CN(C(=O)[C@@H]2CN(C)C[C@H]2c2ccc(F)cc2F)C[C@H](C)[C@@]1(O)c1ccc(Cl)cc1
EC50 [7]: 130 nM

CCN1C[C@@H](C(=O)N2C[C@@H](C)[C@](O)(c3ccc(F)c(F)c3)[C@@H](C)C2)[C@H](c2ccc(F)cc2F)C1
EC50 [7]: 69 nM

C[C@@H]1CN(C(=O)[C@@H]2CN(C(C)(C)C)C[C@H]2c2ccc(F)cc2F)C[C@H](C)[C@@]1(O)c1ccc(C#N)cc1
EC50 [7]: 347 nM

C[C@@H]1CN(C(=O)[C@H]2CN(c3cnccn3)C[C@@H]2c2ccc(F)cc2F)C[C@H](C)[C@@]1(O)c1ccccc1
EC50 [7]: 111 nM

CC(C)N1C[C@@H](C(=O)N2C[C@@H](C)[C@](O)(c3cccc(F)c3)[C@@H](C)C2)[C@H](c2ccc(F)cc2F)C1
logD [3]: 3.2 | EC50 [7]: 40 nM | microsomal CLint [9]: 70 µL/min/mg

C[C@@H]1CN(C(=O)C2CN(C(C)(C)C)CC2c2ccc(F)cc2F)C[C@H](C)[C@@]1(O)c1ccccc1 (mixture of isomers)
EC50 [7]: 3900 nM

C[C@@H]1CN(C(=O)[C@@H]2CN(C(C)(C)C)C[C@H]2c2ccc(F)cc2F)C[C@H](C)[C@@]1(O)c1cncnc1
EC50 [7]: 11100 nM

C[C@@H]1CN(C(=O)[C@@H]2CN(C(C)(C)C)C[C@H]2c2ccc(F)cc2F)C[C@H](C)[C@@]1(O)C1CC1
logD [3]: 2.2 | EC50 [7]: 962 nM | microsomal CLint [9]: 14 µL/min/mg

C[C@@H]1CN(C(=O)[C@H]2CN(c3cccnn3)C[C@@H]2c2ccc(F)cc2F)C[C@H](C)[C@@]1(O)c1ccccc1
EC50 [2]: > 20000 nM | logD [3]: 3.3 | Ki [4]: 10 nM | EC50 [5]: 490 nM | Emax [6]: 89% | EC50 [7]: 6 nM | EC50 [8]: > 3070 nM | microsomal CLint [9]: 243 µL/min/mg

CCN1C[C@@H](C(=O)N2C[C@@H](C)[C@](O)(c3ccccc3)[C@@H](C)C2)[C@H](c2ccc(F)cc2F)C1
EC50 [7]: 85 nM

CCCCN1C[C@H](C(=O)N2C[C@@H](C)[C@](O)(c3ccccc3)[C@@H](C)C2)[C@@H](c2ccc(F)cc2F)C1
Emax [1]: 72% | EC50 [2]: 1430 nM | Emax [10]: 72% | Ki [4]: 233 nM | EC50 [5]: > 5720 nM | EC50 [7]: 105 nM | EC50 [8]: 1100 nM

C[C@@H]1CN(C(=O)[C@H]2CN(C3CCC3)C[C@@H]2c2ccc(F)cc2F)C[C@H](C)[C@@]1(O)c1ccccc1
Emax [10]: 79% | Ki [4]: 62 nM | EC50 [5]: 500 nM | Emax [6]: 81% | EC50 [7]: 32 nM | EC50 [8]: 350 nM

CC(C)(C)N1C[C@@H](C(=O)N2CCC(O)(c3ccccc3)CC2)[C@H](c2ccc(F)cc2F)C1
EC50 [7]: 1170 nM

C[C@@H]1CN(C(=O)[C@H]2CN(C(C)(C)C)C[C@@H]2c2ccc(F)cc2F)C[C@H](C)[C@@]1(O)c1ccccc1
EC50 [7]: > 10000 nM

C[C@@H]1CN(C(=O)[C@@H]2CN(C(C)(C)C)C[C@H]2c2ccc(F)cc2F)C[C@H](C)[C@@]1(O)c1ccc(F)c(F)c1
logD [3]: 3.5 | EC50 [7]: 15 nM | microsomal CLint [9]: 22 µL/min/mg

CC(C)N1C[C@@H](C(=O)N2C[C@@H](C)[C@](O)(c3ccc(F)cc3F)[C@@H](C)C2)[C@H](c2ccc(F)cc2F)C1
EC50 [7]: 220 nM

CC(C)N1C[C@@H](C(=O)N2C[C@@H](C)[C@](O)(c3ccc(F)c(F)c3)[C@@H](C)C2)[C@H](c2ccc(F)cc2F)C1
logD [3]: 3.3 | EC50 [7]: 257 nM | microsomal CLint [9]: 28 µL/min/mg

CCN1C[C@@H](C(=O)N2C[C@@H](C)[C@](O)(c3cccc(F)c3)[C@@H](C)C2)[C@H](c2ccc(F)cc2F)C1
Emax [1]: 92% | EC50 [2]: 6410 nM | logD [3]: 2.9 | Ki [4]: 355 nM | EC50 [5]: > 13500 nM | EC50 [7]: 61 nM | EC50 [8]: > 8250 nM | microsomal CLint [9]: 73 µL/min/mg

CCC[C@@]1(O)[C@H](C)CN(C(=O)[C@@H]2CN(C(C)(C)C)C[C@H]2c2ccc(F)cc2F)C[C@@H]1C
Emax [10]: 95% | Ki [4]: 844 nM | EC50 [5]: > 24700 nM | EC50 [7]: 126 nM | EC50 [8]: 3610 nM

C[C@@H]1CN(C(=O)[C@@H]2CN(C(C)(C)C)C[C@H]2c2ccc(F)cc2F)C[C@H](C)[C@@]1(O)c1cccc(C#N)c1
EC50 [7]: 644 nM

C[C@@H]1CN(C(=O)[C@@H]2CN(C)C[C@H]2c2ccc(F)cc2F)C[C@H](C)[C@@]1(O)c1ccccc1
EC50 [2]: > 20000 nM | Ki [4]: 1070 nM | EC50 [5]: > 19100 nM | EC50 [7]: 717 nM | EC50 [8]: > 7810 nM

CCCN1C[C@H](C(=O)N2C[C@@H](C)[C@](O)(c3ccccc3)[C@@H](C)C2)[C@@H](c2ccc(F)cc2F)C1
EC50 [7]: 19 nM

CC(C)N1C[C@@H](C(=O)N2C[C@@H](C)[C@](O)(c3ccc(F)cc3)[C@@H](C)C2)[C@H](c2ccc(F)cc2F)C1
EC50 [7]: 52 nM

C[C@@H]1CN(C(=O)[C@@H]2CN(C)C[C@H]2c2ccc(F)cc2F)C[C@H](C)[C@@]1(O)c1ccc(F)cc1
Emax [1]: 100% | EC50 [2]: 15000 nM | Ki [4]: 346 nM | EC50 [5]: > 33400 nM | EC50 [7]: 365 nM | EC50 [8]: > 6150 nM

C[C@@H]1CN(C(=O)[C@@H]2CN(C(C)(C)C)C[C@H]2c2ccc(F)cc2F)C[C@H](C)[C@@]1(O)c1ccc(C(F)(F)F)cc1
logD [3]: 4.1 | EC50 [7]: 108 nM | microsomal CLint [9]: < 7 µL/min/mg

CCN1C[C@@H](C(=O)N2C[C@@H](C)[C@](O)(c3ccc(F)cc3F)[C@@H](C)C2)[C@H](c2ccc(F)cc2F)C1
EC50 [7]: 51 nM

C[C@@H]1CN(C(=O)[C@@H]2CNC[C@H]2c2ccc(F)cc2F)C[C@H](C)[C@@]1(O)c1ccc(F)cc1
logD [3]: 1.8 | EC50 [7]: 255 nM | microsomal CLint [9]: 13 µL/min/mg

C[C@@H]1CN(C(=O)[C@@H]2CNC[C@H]2c2ccc(F)cc2F)C[C@H](C)[C@@]1(O)c1ccc(F)c(F)c1
EC50 [7]: 288 nM | microsomal CLint [9]: 7 µL/min/mg

CC(C)[C@@]1(O)[C@H](C)CN(C(=O)[C@H]2CN(c3cccnn3)C[C@@H]2c2ccc(F)cc2F)C[C@@H]1C
EC50 [7]: 89 nM

CC(C)N1C[C@@H](C(=O)N2C[C@@H](C)[C@](O)(c3ccc(Cl)cc3)[C@@H](C)C2)[C@H](c2ccc(F)cc2F)C1
logD [3]: 3.5 | EC50 [7]: 91 nM | microsomal CLint [9]: 34 µL/min/mg

C[C@@H]1CN(C(=O)[C@@H]2CNC[C@H]2c2ccc(F)cc2F)C[C@H](C)[C@@]1(O)c1cccc(F)c1
EC50 [7]: 159 nM

C[C@@H]1CN(C(=O)[C@H]2CN(c3cccnn3)C[C@@H]2c2ccc(F)cc2F)C[C@H](C)[C@@]1(O)C1CC1
Ki [4]: 172 nM | EC50 [5]: 4130 nM | Emax [6]: 42% | EC50 [7]: 82 nM | EC50 [8]: > 16700 nM

C[C@@H]1CN(C(=O)[C@H]2CN(c3cccnn3)C[C@@H]2c2ccc(F)cc2F)C[C@H](C)[C@@]1(O)c1ccccn1
Emax [10]: 67% | logD [3]: 3 | Ki [4]: 52 nM | EC50 [5]: 3660 nM | Emax [6]: 75% | EC50 [7]: 7 nM | EC50 [8]: 1850 nM | microsomal CLint [9]: > 440 µL/min/mg

C[C@@H]1CN(C(=O)[C@H]2CN(c3ccccn3)C[C@@H]2c2ccc(F)cc2F)C[C@H](C)[C@@]1(O)c1ccccc1
Emax [1]: 29% | EC50 [2]: 960 nM | Ki [4]: 79 nM | EC50 [5]: 71 nM | Emax [6]: 78% | EC50 [7]: 15 nM | EC50 [8]: > 16700 nM

C[C@@H]1CN(C(=O)[C@H]2CN(c3cncnc3)C[C@@H]2c2ccc(F)cc2F)C[C@H](C)[C@@]1(O)c1ccccc1
EC50 [7]: 117 nM

COCCN1C[C@H](C(=O)N2C[C@@H](C)[C@](O)(c3ccccc3)[C@@H](C)C2)[C@@H](c2ccc(F)cc2F)C1
logD [3]: 3.1 | EC50 [7]: 374 nM | microsomal CLint [9]: 84 µL/min/mg

C[C@@H]1CN(C(=O)[C@H]2CN(c3cccnn3)C[C@@H]2c2ccc(F)cc2F)C[C@H](C)[C@@]1(O)c1ccc(F)cc1
logD [3]: 3.7 | EC50 [7]: 4 nM | microsomal CLint [9]: 310 µL/min/mg

CCC[C@@]1(O)[C@H](C)CN(C(=O)[C@H]2CN(c3cccnn3)C[C@@H]2c2ccc(F)cc2F)C[C@@H]1C
Emax [10]: 104% | logD [3]: 2.8 | Ki [4]: 56 nM | EC50 [5]: 7480 nM | Emax [6]: 79% | EC50 [7]: 21 nM | EC50 [8]: 3900 nM | microsomal CLint [9]: > 440 µL/min/mg

From ChEMBL document CHEMBL1156187, “Discovery of a selective small-molecule melanocortin-4 receptor agonist with efficacy in a pilot study of sexual dysfunction in humans” (J Med Chem, 2010)
